# *1 amine or outer side, *2 acyl side, *3 side chain or, on linkers, in order; H or OH if unused. Where a SMILES comes first, the peptide text is derived from it. Bridges are numbered along the chain shown (N, C = ends). [ ]: non-standard residue; d: D form. The star is where a group is joined. Leu(3R-OH,Nα-propionyl) = CCC(=O)N[C@H](C(=O)*)[C@H](O)C(C)C; X1 = CC(C)[C@@H](O[*:3])[C@H](N[*:1])C(=O)[*:2]; Leu(3R-OH) = CC(C)[C@@H](O)[C@H](N)C(=O)O; X2 = CCCC(=O)N[C@H](C(=O)*)[C@H](O)C(C)C; NMeT = CN[C@H](C(=O)O)[C@@H](C)O; dPhLac = O=C(O)[C@H](O)Cc1ccccc1; NMeA = CN[C@@H](C)C(=O)O; NMeDha = C=C(NC)C(=O)O
# Key:
# [1] = molecular target: T1, wild type Gαq in HEK Gαq/Gα11-null cells (Homo sapiens, UniProt P50148); experiment: DMR (dynamic mass redistribution) inhibition of carbachol (CCh 100 µM) response in Gαq-transfected HEK293 Gαq/Gα11-null cells; type: cell-based; conditions: compounds added 1 h before, 37 °C, mean ± s.e.m. of n independent replicates in technical triplicates (FR n=11, FR-Core n=4, FR-5 n=4), read-out: pIC50 (Gαq inhibition, DMR) (converted)
# T1 construct: expressed in transfected cells; host or cells: CRISPR/Cas9-edited HEK293 Gαq/Gα11-null cells
# T1 sequence (P50148 1-359): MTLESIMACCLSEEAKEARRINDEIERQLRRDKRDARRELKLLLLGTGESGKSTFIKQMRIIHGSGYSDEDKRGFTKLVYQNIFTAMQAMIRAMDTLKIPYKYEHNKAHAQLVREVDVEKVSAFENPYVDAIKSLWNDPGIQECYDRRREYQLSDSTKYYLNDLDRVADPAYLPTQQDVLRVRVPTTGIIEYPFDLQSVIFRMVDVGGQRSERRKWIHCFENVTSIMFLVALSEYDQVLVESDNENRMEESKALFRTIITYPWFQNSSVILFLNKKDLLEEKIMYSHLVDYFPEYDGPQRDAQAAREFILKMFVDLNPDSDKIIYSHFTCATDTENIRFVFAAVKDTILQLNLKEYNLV
# Method: Label-free dynamic mass redistribution (DMR) assay
# Cell culture materials were purchased from Invitrogen (Carlsbad, CA, USA). Generation of genetically engineered HEK293 cells using CRISPR/Cas9 technology to knockout the subunits of Gαq and Gα11 (Gαq/Gα11-null cells) is described elsewhere. Cells were maintained in Dulbecco’s modified Eagle’s medium (DMEM) supplemented with 10% (v/v) fetal calf serum (FCS, PAN biotech, Germany), penicillin (100 units/mL), and streptomycin (0.1 mg/mL), and kept in a humidified atmosphere with 5% CO2 at 37 °C. All cell lines were screened by PCR on a monthly basis for mycoplasma contamination and were tested negative. DMR measurements were performed analogous to prior studies[39],[40] using the Epic DMR reader (Corning, NY, USA) together with the Cybi-SELMA semi-automated electronic pipetting system (Analytik Jena AG, Jena, Germany). 24 h after transfection with the G protein αq subunit, HEK293 cells were counted and seeded on 384-well fibronectin-coated biosensor plates at a density of 17,000 cells per well. On the next day, cells were washed twice with Hanks’ buffered salt solution containing 20 mM HEPES (HBSS + HEPES) and incubated for 1 h at 37 °C in the EPIC reader. 1, 2, 3 or 7 in HBSS + HEPES were added 1 h before the measurement. The sensor plate was scanned to record a baseline optical signature (no change in basal DMR), and after the addition of compounds, DMR alterations were monitored for 3000 s at 37 °C. All data were analyzed using GraphPad Prism 8.0.0 (GraphPad Inc, La Jolla, CA, USA). Quantification of DMR signals was performed by calculation of the maximum responses. […]
# Concentration-effect curves in Fig. 4a–c were normalized by setting each experimental maximal effect as 100% response. All data are expressed as mean + or ± standard error of the mean (s.e.m.) of at least three independent experiments performed in technical triplicates. […]
# Supplementary Table 6: Quantification of FR, FR-Core and FR-5 inhibitory activities at wild type Gαq in HEK Gαq/Gα11-null cells. […]
# [2] = molecular target: T2, Gαq proteins (human platelet membrane preparations) (Homo sapiens, UniProt P50148); experiment: Competition binding vs [³H]PSB-15900 at human platelet membrane preparations; conditions: vs 5 nM [³H]PSB-15900; 50 µg protein; 50 mM Tris pH 7.4; 37 °C, 1 h; read-out: pIC50 (competition binding) (converted)
# T2 construct: human platelet membrane preparations that natively express Gαq proteins; from tissue; host or cells: human platelet membrane preparation
# T2 sequence (P50148 1-359): T1 sequence (P50148 1-359)
# Method: Competition binding assay
# Competition binding assays of 1 and 2 were conducted versus the radiolabeled FR derivative [³H]PSB-15900 utilizing human platelet membrane preparations that natively express Gαq proteins. The experiments were performed in 50 mM Tris, pH=7.4, in a final assay volume of 200 µl. Each assay tube contained 50 µl [³H]PSB-15900 solution in the buffer (final concentration: 5 nM), 50 µl of human platelet membrane preparation in buffer (50 µg of protein), 95 µl of buffer, and 5 µl of 1 or 2 solution, respectively, in varying concentrations dissolved in DMSO. Non-specific-binding was determined in the presence of 5 µM FR dissolved in DMSO. Incubation was performed at 37 °C for 1 h with gentle shaking and was started by the addition of the membrane preparation. The incubation was terminated by rapid filtration through GF/C glass fiber filters using a Brandel 24-well-harvester. Filters were dried, punched out, transferred to scintillation vials, and incubated for at least 6 h in scintillation cocktail (2.5 ml ProSafe FC+®, Meridian Biotechnologies Ltd, UK) prior to measurement in a liquid scintillation counter at an efficiency of 53%. Data were evaluated using GraphPad Prism 7 (GraphPad Inc., San Diego, CA, USA), and IC50 values were determined by the One site – Fit logIC50-equation.
# [3] = test system: Riptortus pedestris; experiment: Oral feeding toxicity, survival rate of first instar stinkbug nymphs; type: in vivo; conditions: 40 µM, nine days
# Method: Feeding and effect determination of 1 and 2 on insects
# A small cotton pad soaked with 500 µl of 1 or 2-containing water was served to first instar nymphs of the stinkbug R. pedestris for oral intake. For feeding, 1 and 2 were each dissolved in 100% MeOH and diluted with water to concentrations of 0.2, 0.04, and 0.02 µg/µl. Distilled water containing 2% MeOH was used as control. Each experiment included 20 stinkbug individuals. Insects were reared in a moisture chamber at 25 °C under a long day regimen (16 h light, 8 h dark), supplied with dried soybean seeds. The 1 or 2-containing water was exchanged every 3 d, and the survival rate was monitored every day at the same time for 9 d.
# Please select the one below that is the best fit for your research. If you are not sure, read the appropriate sections before making your selection. […]
# Sample size Sample size: 7 groups of each 20 animals were treated with control (1 group) and two different compounds at 3 different concentrations (6 groups). […] Sample size (size of group) was determined based on standard laboratory practice, and the available amount of the compounds for the experiments. […]
# We require information from authors about some types of materials, experimental systems and methods used in many studies. […] If you are not sure if a list item applies to your research, read the appropriate section before selecting a response. […]
SMILES,IC50 [1],IC50 [2],"lethality in words, lower concentration [3]"
C=C1C(=O)N[C@@H](C)C(=O)N(C)[C@@H](C)C(=O)N[C@@H]([C@H](O)C(C)C)C(=O)N(C)[C@@H]([C@@H](C)OC)C(=O)O[C@H](C(C)C)[C@H](NC(C)=O)C(=O)O[C@H](Cc2ccccc2)C(=O)N1C [FR-Core] (Ac-[X1][dPhLac][NMeDha]A[NMeA][Leu(3R-OH)][NMeT](Me); ester 1-C),7.41 µM,2.75 µM,–
C=C1C(=O)N[C@@H](C)C(=O)N(C)[C@@H](C)C(=O)N[C@@H]([C@H](OC(=O)[C@@H](NC(=O)CCC)[C@H](O)C(C)C)C(C)C)C(=O)N(C)[C@@H]([C@@H](C)OC)C(=O)O[C@H](C(C)C)[C@H](NC(C)=O)C(=O)O[C@H](Cc2ccccc2)C(=O)N1C [FR-5] (Ac-[X1][dPhLac][NMeDha]A[NMeA][X1](X2)[NMeT](Me); ester 1-C),3.16 µM,–,–
"C=C1C(=O)N[C@@H](C)C(=O)N(C)[C@@H](C)C(=O)N[C@@H]([C@H](OC(=O)[C@@H](NC(=O)CC)[C@H](O)C(C)C)C(C)C)C(=O)N(C)[C@@H]([C@@H](C)OC)C(=O)O[C@H](C(C)C)[C@H](NC(C)=O)C(=O)O[C@H](Cc2ccccc2)C(=O)N1C [FR] (Ac-[X1][dPhLac][NMeDha]A[NMeA][X1](Leu(3R-OH,Nα-propionyl))[NMeT](Me); ester 1-C)",0.457 µM,0.0132 µM,lethal effects
